In general, IC50 refers to the concentration that inhibits the measured activity by half. The term Ki denotes a dissociation constant, usually derived from enzyme kinetics or from competition with a known ligand.

In test [1] the target is T1, human recombinant receptor (PR) (Homo sapiens, UniProt P06401).
T1 sequence (P06401 1-933): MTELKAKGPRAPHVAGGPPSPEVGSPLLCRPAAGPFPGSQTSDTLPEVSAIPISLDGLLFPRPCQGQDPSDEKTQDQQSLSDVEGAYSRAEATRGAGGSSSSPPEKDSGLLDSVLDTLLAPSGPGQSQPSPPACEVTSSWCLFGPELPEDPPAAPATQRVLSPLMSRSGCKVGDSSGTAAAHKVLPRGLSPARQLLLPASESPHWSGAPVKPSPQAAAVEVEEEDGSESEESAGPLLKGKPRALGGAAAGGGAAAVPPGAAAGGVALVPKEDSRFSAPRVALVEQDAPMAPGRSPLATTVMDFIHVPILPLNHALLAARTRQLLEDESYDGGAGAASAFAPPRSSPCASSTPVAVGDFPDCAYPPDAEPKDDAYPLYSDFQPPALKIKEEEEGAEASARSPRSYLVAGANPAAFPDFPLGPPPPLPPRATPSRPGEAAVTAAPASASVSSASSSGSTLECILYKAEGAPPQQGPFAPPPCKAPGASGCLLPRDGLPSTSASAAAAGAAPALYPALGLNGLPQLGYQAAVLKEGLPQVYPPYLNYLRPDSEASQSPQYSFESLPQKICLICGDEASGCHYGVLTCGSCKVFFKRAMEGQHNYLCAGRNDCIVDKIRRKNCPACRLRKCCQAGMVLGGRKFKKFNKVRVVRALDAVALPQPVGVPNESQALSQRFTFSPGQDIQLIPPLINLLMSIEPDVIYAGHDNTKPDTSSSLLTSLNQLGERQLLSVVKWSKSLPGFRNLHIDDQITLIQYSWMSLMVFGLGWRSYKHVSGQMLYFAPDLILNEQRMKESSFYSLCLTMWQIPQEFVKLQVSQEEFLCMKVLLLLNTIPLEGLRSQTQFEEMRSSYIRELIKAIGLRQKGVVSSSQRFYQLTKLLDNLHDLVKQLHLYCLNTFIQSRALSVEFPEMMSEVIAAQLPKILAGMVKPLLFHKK
As to the kind of experiment: PR binding, radioligand binding with [3H]-progesterone. The procedure:
(§1) The methods are described by Gill et al. and Morgan et al., supra.
PR binding was assessed using the same methods, using the human recombinant receptor and [^3H]-progesterone. IC50 values were determined from six-point concentration/inhibition curves performed in duplicate at semi-log concentrations.

Test [2] deals with T2, human recombinant receptor (GR) (Homo sapiens, UniProt P04150).
T2 sequence (P04150 1-777): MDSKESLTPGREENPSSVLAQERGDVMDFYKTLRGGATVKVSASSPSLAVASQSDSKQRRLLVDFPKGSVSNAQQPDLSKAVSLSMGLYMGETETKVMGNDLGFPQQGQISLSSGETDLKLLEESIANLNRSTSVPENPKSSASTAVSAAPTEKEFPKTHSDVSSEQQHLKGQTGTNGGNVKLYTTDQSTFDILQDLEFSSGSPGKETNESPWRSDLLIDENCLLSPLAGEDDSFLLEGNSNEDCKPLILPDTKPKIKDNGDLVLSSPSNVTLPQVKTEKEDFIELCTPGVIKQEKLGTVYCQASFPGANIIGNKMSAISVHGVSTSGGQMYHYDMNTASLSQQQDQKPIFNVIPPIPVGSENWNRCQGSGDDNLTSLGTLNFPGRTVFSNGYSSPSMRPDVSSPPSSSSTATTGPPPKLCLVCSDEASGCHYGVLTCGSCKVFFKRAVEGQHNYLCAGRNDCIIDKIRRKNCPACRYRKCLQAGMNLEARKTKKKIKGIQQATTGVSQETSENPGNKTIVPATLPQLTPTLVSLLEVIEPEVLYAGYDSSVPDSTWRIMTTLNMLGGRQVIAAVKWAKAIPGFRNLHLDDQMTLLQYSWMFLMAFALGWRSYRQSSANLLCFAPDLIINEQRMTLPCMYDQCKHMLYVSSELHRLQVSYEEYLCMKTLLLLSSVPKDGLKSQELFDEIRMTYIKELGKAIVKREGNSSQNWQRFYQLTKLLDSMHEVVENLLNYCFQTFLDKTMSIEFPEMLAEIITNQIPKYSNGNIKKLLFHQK
The test can be described thus: GR binding, glucocorticoid radioligand binding with [3H]-dexamethasone.
From the text: as §1

Test [3] has as its target T3, native glucocorticoid receptors (Homo sapiens, UniProt P04150).
T3 construct: cell line that expresses native glucocorticoid receptors; endogenous in cells; host or cells: SW1353 human chondrosarcoma cells, stably transfected only with a GRE-luciferase reporter
T3 sequence (P04150 1-777): T2 sequence (P04150 1-777)
The test can be described thus: Glucocorticoid reporter gene assay (GRE-luciferase) in SW1353 cells, GR antagonist activity. The test is classed as cell-based. The note with it: for Ki: Ki=IC50/(1+[Dex]/EC50Dex); for IC50: 24 hours, in the presence of 50 nM dexamethasone. An excerpt:
Depending on the intended use and route of administration, various criteria may be used to determine a GR antagonist for use in the invention. […] The GR antagonism preferably negates more than 30%, more preferably more than 50%, and most preferably more than 90%, of the GR agonism at sites distant from the site of administration of the corticosteroid, and negates less than 70%, more preferably less than 50%, and most preferably less than 10%, of the GR agonism at the site of intended action of the corticosteroid.
The glucocorticoid reporter gene assay was performed in SW1353 human chondrosarcoma cell line that expresses native glucocorticoid receptors (Morgan et al., supra), stably transfected with a vector containing a glucocorticoid-responsive element (GRE) linked to the firefly luciferase gene. […] Compounds were tested on two separate occasions to determine inter-assay variability.
Ki values were calculated from the equation
Ki=IC50/(1+[Dex]/EC50^Dex)
In general terms: A reporter such as luciferase makes a cellular process visible.

The test system of test [4] is Intraocular pressure (IOP). The test can be described thus: Intraocular pressure after a single eye drop in New Zealand White rabbits. The note with it: rabbit; for IOP at 3 hours, Mean (SEM) / IOP at 4 hours, Mean (SEM): 0.3% single eye drop; for decrease in IOP compared to vehicle-treated group: at 3 and 4 hours. The test is classed as in vivo. The method, then: Healthy female New Zealand White rabbits were tested in a randomized, blind, controlled study, with 6 animals per treatment group. They were acclimatized for 7 days prior to the start of the study. Intraocular pressure (IOP) was measured in both eyes pre-treatment and at intervals after instillation of a single eye drop of vehicle or test compound into the left eye of each animal, administered from a dropper bottle. The volume of each drop was approximately 60-65 microlitres. The vehicle was a sterile solution of 15% hydroxpropyl-β-cyclodextrin, 5% polyethylene glycol, 0.5% hydroxypropylmethylcellulose in deionised water, adjusted to pH 7 with HCl or NaOH as appropriate. […] IOP was measured using a Mentor Tonopen XL (Lim et al., 2005, Invest Opthalmol Vis Sci 46 2419-23), after topical administration of 0.5% proxymetacaine HCl local anaesthetic. Ten recordings per eye per time point were taken and a mean reading documented.

The next test has as its system rat skin. The note with it: given subcutaneously or topically to the skin; cited from earlier work.
The target of test [5] is GR receptors in the iris-ciliary body (Oryctolagus cuniculus, UniProt P59667). Conditions: rabbit eye; cited from earlier work.
Another test deals with intraocular pressure. Conditions: rabbit, cited from earlier work.
The mark [6] stands for this setting: read-out: GR Antagonist Mean Ki.

Where two headings read alike, the source gives them in different places. Marks after values point to notes of the source that are not given here.

GR receptors in the iris-ciliary body, sequence (P59667 whole entry): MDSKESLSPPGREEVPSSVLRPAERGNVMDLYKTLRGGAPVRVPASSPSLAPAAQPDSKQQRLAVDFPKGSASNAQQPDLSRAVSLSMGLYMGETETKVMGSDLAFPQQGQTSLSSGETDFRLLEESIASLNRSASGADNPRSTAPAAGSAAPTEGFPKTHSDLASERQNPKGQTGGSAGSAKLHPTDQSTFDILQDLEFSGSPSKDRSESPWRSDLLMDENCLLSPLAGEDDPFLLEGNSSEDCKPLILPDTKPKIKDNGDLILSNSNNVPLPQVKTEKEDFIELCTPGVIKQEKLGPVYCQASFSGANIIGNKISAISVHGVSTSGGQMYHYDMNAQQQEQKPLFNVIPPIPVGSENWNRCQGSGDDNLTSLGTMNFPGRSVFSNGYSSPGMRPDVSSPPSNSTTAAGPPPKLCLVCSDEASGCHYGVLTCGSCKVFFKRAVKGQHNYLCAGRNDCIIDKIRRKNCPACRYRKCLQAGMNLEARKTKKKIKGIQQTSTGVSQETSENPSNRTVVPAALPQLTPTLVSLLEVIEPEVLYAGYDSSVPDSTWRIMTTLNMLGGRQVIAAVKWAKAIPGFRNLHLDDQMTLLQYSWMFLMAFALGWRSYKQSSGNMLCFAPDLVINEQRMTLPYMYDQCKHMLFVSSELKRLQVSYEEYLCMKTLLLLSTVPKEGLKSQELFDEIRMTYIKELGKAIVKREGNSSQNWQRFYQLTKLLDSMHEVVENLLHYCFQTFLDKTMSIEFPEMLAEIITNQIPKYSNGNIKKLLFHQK

On to `COc1cccc2c1-c1ccc(NS(C)(=O)=O)cc1C(c1cccc(C)c1)O2` (stereo not drawn) [Compound A-362947, N-[1-methoxy-6-(3-methylphenyl)-6H-benzo{c}chromen-8-yl]methanesulfonamide], for which the IC50 in test [1] was 1330 nM; in test [2], 5.64 nM. For the same compound, the Ki in test [1] was found to be 531 nM; in test [2], 2.82 nM; in test [3] (GR Antagonist Mean Ki) it was 50.4 nM.

On to `CC#C[C@]1(O)CC[C@H]2[C@@H]3CCC4=CC(=O)CCC4=C3[C@@H](c3ccc(NC)cc3)C[C@@]21C` [RU42633], for which the IC50 stood at 4.46 nM in test [1], 1.12 nM in test [2] and 17.3 nM in test [3]. Moreover, the Ki in test [1] was 1.79 nM; in test [2] it was 0.56 nM; in test [3] (setting [6]), 2.55 nM.

Regarding `CC#C[C@]1(O)CC[C@H]2[C@@H]3CCC4=CC(=O)CCC4=C3[C@@H](c3ccc(N)cc3)C[C@@]21C` [RU42848], the IC50 was found to be 15.9 nM in test [1], 1.36 nM in test [2] and 58.3 nM in test [3]. Moreover, the values for the Ki in test [1], in test [2] and in test [3] (setting [6]) were 6.37 nM, 0.68 nM and 8.6 nM, respectively. Further, in test [4], the “IOP at 3 hours, Mean (SEM)” value is recorded as 11.67 (0.49) * mm Hg. The “IOP at 4 hours, Mean (SEM)” value in test [4] is 11.50 (0.34) * mm Hg. For the same compound, the “decrease in IOP compared to vehicle-treated group” value (“decrease in IOP” below) in test [4] is recorded as “induced a significant decrease in IOP”.

For the compound `CC#C[C@]1(O)CC[C@H]2[C@@H]3CCC4=CC(=O)CCC4=C3[C@@H](c3ccc(N(C)C)cc3)C[C@@]21C` [RU486, Mifepristone], in test [4], the “IOP at 3 hours, Mean (SEM)” value is given as 11.67 (1.23) mm Hg; the “IOP at 4 hours, Mean (SEM)” value is given as 11.83 (1.19) mm Hg; the “decrease in IOP” value is “did not induce a statistically significant decrease in IOP”. In addition, the “effect on steroid-induced skin atrophy” value in the test on rat skin is on record as “blocked atrophogenic effect of the topical steroid without affecting its anti-inflammatory effect”. Moreover, in test [5], the “binding to GR receptors in iris-ciliary body” value is “specifically blocks the binding of the GR agonist triamcinolone”. Also, the “effect on intraocular pressure, topical” value with intraocular pressure (1% suspension eyedrops topically, after 4-13 weeks of treatment) is “falls in intraocular pressure have been noted”. Moreover, in the test with intraocular pressure (1% suspension injected subconjunctivally), the “effect on intraocular pressure, subconjunctival injection” value was “falls in intraocular pressure were reported”.

Turning to `CN(C)c1ccc([C@H]2C[C@@]3(C)[C@@H](CC[C@]3(O)C#CCO)[C@@H]3CCC4=CC(=O)CCC4=C32)cc1` [RU42698], in test [1], the IC50 is 10.6 nM and the Ki was determined as 4.24 nM. Moreover, in test [2], the IC50 was 1.74 nM and the Ki was 0.87 nM. Further, in test [4], the “IOP at 3 hours, Mean (SEM)” value is given as 11.83 (0.40) * mm Hg; the “IOP at 4 hours, Mean (SEM)” value was 11.83 (0.31) * mm Hg; the “decrease in IOP” value is on record as “induced a significant decrease”. In addition, the IC50 in test [3] stood at 80.9 nM. Also, the Ki in test [3] (setting [6]) came to 12.6 nM.

These data come from US20100298282A1, “Treatment of Ocular Conditions and the Side-Effects of Glucocorticoids” (priority 2006, published 2010).
